According to patent publication US20200360352A1, “USE OF RIFAMYCIN-NITROIMIDAZOLE COUPLING MOLECULE” (priority 2019, published 2020):
Converted amounts (≈) assume the structure as drawn. Where two headings read alike, the source gives them in different places.

Assays:
[1] = system: Mycobacterium avium; assay: MIC, micro broth dilution with resazurin readout; assay type: cell-based; settings: read-out: Minimum Inhibitory Concentration (MIC)
[2] = system: Mycobacterium abscessus; assay: MIC, micro broth dilution with resazurin readout; assay type: cell-based; settings: Mycobacteroides abscessus, read-out: Minimum Inhibitory Concentration (MIC)
[3] = system: Mycobacterium kansasii; assay: MIC, micro broth dilution with resazurin readout; assay type: cell-based; settings: read-out: Minimum Inhibitory Concentration (MIC)
[4] = system: Mycobacterium intracellulare; assay: MIC, micro broth dilution with resazurin readout; assay type: cell-based; settings: MH Culture Medium, read-out: Minimum Inhibitory Concentration (MIC)
[5] = system: Mycobacterium massiliense; assay: MIC, micro broth dilution with resazurin readout; assay type: cell-based; settings: Mycobacteroides abscessus, MH Culture Medium, read-out: Minimum Inhibitory Concentration (MIC)
[6] = system: Mycobacterium fortuitum; assay: MIC, micro broth dilution with resazurin readout; assay type: cell-based; settings: Mycolicibacterium fortuitum, MH Culture Medium, read-out: Minimum Inhibitory Concentration (MIC)
[7] = system: Mycodacterium chelonei; assay: MIC, micro broth dilution with resazurin readout; assay type: cell-based; settings: MH Culture Medium; Chelonei (standard strain); read-out: Minimum Inhibitory Concentration (MIC)
[8] = system: Mycobacterium avium; assay: MBC, plating of MIC wells and CFU count; assay type: cell-based; settings: read-out: Minimum Bactericidal Concentration (MBC)
[9] = system: Mycobacterium abscessus; assay: MBC, plating of MIC wells and CFU count; assay type: cell-based; settings: Mycobacteroides abscessus, read-out: Minimum Bactericidal Concentration (MBC)
[10] = system: Mycobacterium kansasii; assay: MBC, plating of MIC wells and CFU count; assay type: cell-based; settings: read-out: Minimum Bactericidal Concentration (MBC)
[11] = system: NTM; assay: In-vitro activity against NTM, overall conclusion; assay type: cell-based, nontuberculous mycobacteria; settings: overall conclusion from Tables 1-3
Experimental: In this embodiment, an inhibitory test is performed on pathogenic bacteria, i.e. Mycobacterium avium, Mycobacterium abscessus and Mycobacterium kansasii belonging to the nontuberculous mycobacteria using the rifamycin-nitroimidazole coupling molecule of the present invention and positive controls, and then Minimum Inhibitory Concentration (MIC) and Minimum Bactericidal Concentration (MBC) are obtained. Clarithromycin, moxifloxacin, amikacin, rifampicin, rifabutin, ciprofloxacin and metronidazole are used as positive controls. The test strains are provided by KnowBio company, and the Chinese clinically isolated strains are derived from Shanghai Pulmonary Hospital.
The inhibitory test of this embodiment is performed by the micro broth dilution method using two different culture mediums: (1) MH (Mueller-Hinton) micro broth dilution method: using MH culture medium (or culture solution), wherein the concentration of calcium and magnesium ions in MH broth (cation-adjusted) is consistent with that in the Guideline of the Clinical and Laboratory Standards Institute (CLSI; M7-A7); and (2) 7H9 micro broth dilution method: using 7H9 culture medium (or culture solution, provided by Sigma-Aldrich).

[12] = 7H9 Broth, Mycobacterium avium Rough
[13] = 7H9 Broth, Mycobacterium avium Smooth
[14] = MH Broth, Mycobacterium avium Rough
[15] = MH Broth, Mycobacterium avium Smooth
[16] = MH Culture Medium, Avium (standard strain)
[17] = MH Culture Medium, clinically isolated strain Avium (S31)
[18] = MH Culture Medium, clinically isolated strain Avium (S123)
[19] = MH Culture Medium, clinically isolated strain Avium (S559)
[20] = MH Culture Medium, clinically isolated strain Avium (S568)
[21] = MH Culture Medium, clinically isolated strain Avium (S577)
[22] = MH Culture Medium, clinically isolated strain Avium (S597)
[23] = MH Culture Medium, clinically isolated strain Avium (S602)
[24] = MH Culture Medium, Kansasii (standard strain)
[25] = MH Culture Medium, clinically isolated strain Kansasii (S9)
[26] = MH Culture Medium, clinically isolated strain Kansasii (S199)
[27] = MH Culture Medium, clinically isolated strain Kansasii (S520)
[28] = MH Culture Medium, clinically isolated strain Kansasii (S609)
[29] = Intracellulare (standard strain)
[30] = clinically isolated strain Intracellulare (S90)
[31] = clinically isolated strain Intracellulare (S261)
[32] = clinically isolated strain Intracellulare (S269)
[33] = clinically isolated strain Intracellulare (S290)
[34] = clinically isolated strain Intracellulare (S291)
[35] = clinically isolated strain Intracellulare (S298)
[36] = clinically isolated strain Intracellulare (S442)
[37] = clinically isolated strain Intracellulare (S541)
[38] = clinically isolated strain Intracellulare (S623)
[39] = clinically isolated strain Intracellulare (ZPS)
[40] = clinically isolated strain Massiliense (D10)
[41] = clinically isolated strain Massiliense (D14)
[42] = clinically isolated strain Massiliense (D18)
[43] = clinically isolated strain Fortuitum (S103)
[44] = clinically isolated strain Fortuitum (S111)

CO[C@H]1/C=C/O[C@@]2(C)Oc3c(C)c(O)c4c(c3C2=O)C2=NC3(CCN(CCn5c([N+](=O)[O-])cnc5C)CC3)NC2=C(NC(=O)/C(C)=C\C=C\[C@H](C)[C@H](O)[C@@H](C)[C@@H](O)[C@@H](C)[C@H](OC(C)=O)[C@@H]1C)C4=O [Compound I]
MIC [1, 12]: 4 µg/mL (≈ 4.24 µM)
MIC [1, 13]: 4 µg/mL (≈ 4.24 µM)
MIC [1, 14]: 4 µg/mL (≈ 4.24 µM)
MIC [1, 15]: 4 µg/mL (≈ 4.24 µM)
MIC [1, 16]: 0.0625 µg/mL (≈ 0.0662 µM)
MIC [1, 17]: 0.0625 µg/mL (≈ 0.0662 µM)
MIC [1, 18]: 0.0625 µg/mL (≈ 0.0662 µM)
MIC [1, 19]: 0.0625 µg/mL (≈ 0.0662 µM)
MIC [1, 20]: 0.25 µg/mL (≈ 0.265 µM)
MIC [1, 21]: 0.0625 µg/mL (≈ 0.0662 µM)
MIC [1, 22]: 0.125 µg/mL (≈ 0.132 µM)
MIC [1, 23]: 0.0625 µg/mL (≈ 0.0662 µM)
MIC ([2]; 7H9 Broth): 1 µg/mL (≈ 1.06 µM)
MIC ([2]; MH Broth): 1 µg/mL (≈ 1.06 µM)
MIC ([3]; 7H9 Broth): 2 µg/mL (≈ 2.12 µM)
MIC ([3]; MH Broth): 2 µg/mL (≈ 2.12 µM)
MIC [3, 24]: 0.0625 µg/mL (≈ 0.0662 µM)
MIC [3, 25]: 0.0625 µg/mL (≈ 0.0662 µM)
MIC [3, 26]: 0.0625 µg/mL (≈ 0.0662 µM)
MIC [3, 27]: 0.0625 µg/mL (≈ 0.0662 µM)
MIC [3, 28]: 0.0625 µg/mL (≈ 0.0662 µM)
MIC [4, 29]: 0.0625 µg/mL (≈ 0.0662 µM)
MIC [4, 30]: 0.25 µg/mL (≈ 0.265 µM)
MIC [4, 31]: 0.25 µg/mL (≈ 0.265 µM)
MIC [4, 32]: 0.125 µg/mL (≈ 0.132 µM)
MIC [4, 33]: 0.25 µg/mL (≈ 0.265 µM)
MIC [4, 34]: 0.125 µg/mL (≈ 0.132 µM)
MIC [4, 35]: 0.25 µg/mL (≈ 0.265 µM)
MIC [4, 36]: 0.0625 µg/mL (≈ 0.0662 µM)
MIC [4, 37]: 0.125 µg/mL (≈ 0.132 µM)
MIC [4, 38]: 0.25 µg/mL (≈ 0.265 µM)
MIC [4, 39]: 0.0625 µg/mL (≈ 0.0662 µM)
MIC [5, 40]: 64 µg/mL (≈ 67.8 µM)
MIC [5, 41]: 64 µg/mL (≈ 67.8 µM)
MIC [5, 42]: 64 µg/mL (≈ 67.8 µM)
MIC ([6]; Fortuitum (standard strain)): 16 µg/mL (≈ 16.9 µM)
MIC [6, 43]: > 64 µg/mL
MIC [6, 44]: 4 µg/mL (≈ 4.24 µM)
MIC [7]: 32 µg/mL (≈ 33.9 µM)
MBC [8, 12]: 4 µg/mL (≈ 4.24 µM)
MBC [8, 13]: 16 µg/mL (≈ 16.9 µM)
MBC [8, 14]: 4 µg/mL (≈ 4.24 µM)
MBC [8, 15]: 16 µg/mL (≈ 16.9 µM)
MBC ([9]; 7H9 Broth): 1 µg/mL (≈ 1.06 µM)
MBC ([9]; MH Broth): 16 µg/mL (≈ 16.9 µM)
MBC ([10]; 7H9 Broth): 8 µg/mL (≈ 8.47 µM)
MBC ([10]; MH Broth): 2 µg/mL (≈ 2.12 µM)
in-vitro activity against NTM [11]: effective and broad in-vitro activity against NTM

CC[C@H]1OC(=O)[C@H](C)[C@@H](O[C@H]2C[C@@](C)(OC)[C@@H](O)[C@H](C)O2)[C@H](C)[C@@H](O[C@@H]2O[C@H](C)C[C@H](N(C)C)[C@H]2O)[C@](C)(OC)C[C@@H](C)C(=O)[C@H](C)[C@@H](O)[C@]1(C)O [Clarithromycin]
MIC [1, 12]: > 64 µg/mL
MIC [1, 13]: 32 µg/mL (≈ 42.8 µM)
MIC [1, 14]: > 64 µg/mL
MIC [1, 15]: > 64 µg/mL
MIC [1, 16]: 0.0625 µg/mL (≈ 0.0836 µM)
MIC [1, 17]: 0.125 µg/mL (≈ 0.167 µM)
MIC [1, 18]: 0.5 µg/mL (≈ 0.668 µM)
MIC [1, 19]: 0.25 µg/mL (≈ 0.334 µM)
MIC [1, 20]: 4 µg/mL (≈ 5.35 µM)
MIC [1, 21]: 0.25 µg/mL (≈ 0.334 µM)
MIC [1, 22]: 1 µg/mL (≈ 1.34 µM)
MIC [1, 23]: 1 µg/mL (≈ 1.34 µM)
MIC ([2]; 7H9 Broth): 16 µg/mL (≈ 21.4 µM)
MIC ([2]; MH Broth): 64 µg/mL (≈ 85.6 µM)
MIC ([3]; 7H9 Broth): 2 µg/mL (≈ 2.67 µM)
MIC ([3]; MH Broth): 2 µg/mL (≈ 2.67 µM)
MIC [3, 24]: 0.0625 µg/mL (≈ 0.0836 µM)
MIC [3, 25]: 0.125 µg/mL (≈ 0.167 µM)
MIC [3, 26]: 0.0625 µg/mL (≈ 0.0836 µM)
MIC [3, 27]: 0.0625 µg/mL (≈ 0.0836 µM)
MIC [3, 28]: 0.125 µg/mL (≈ 0.167 µM)
MIC [4, 29]: 0.0625 µg/mL (≈ 0.0836 µM)
MIC [4, 30]: 1 µg/mL (≈ 1.34 µM)
MIC [4, 31]: 1 µg/mL (≈ 1.34 µM)
MIC [4, 32]: 1 µg/mL (≈ 1.34 µM)
MIC [4, 33]: 1 µg/mL (≈ 1.34 µM)
MIC [4, 34]: 1 µg/mL (≈ 1.34 µM)
MIC [4, 35]: 2 µg/mL (≈ 2.67 µM)
MIC [4, 36]: 2 µg/mL (≈ 2.67 µM)
MIC [4, 37]: 64 µg/mL (≈ 85.6 µM)
MIC [4, 38]: 4 µg/mL (≈ 5.35 µM)
MIC [4, 39]: 1 µg/mL (≈ 1.34 µM)
MIC [5, 40]: 0.25 µg/mL (≈ 0.334 µM)
MIC [5, 41]: 0.0625 µg/mL (≈ 0.0836 µM)
MIC [5, 42]: 0.0625 µg/mL (≈ 0.0836 µM)
MIC ([6]; Fortuitum (standard strain)): 32 µg/mL (≈ 42.8 µM)
MIC [6, 43]: > 64 µg/mL
MIC [6, 44]: 2 µg/mL (≈ 2.67 µM)
MIC [7]: 0.5 µg/mL (≈ 0.668 µM)
MBC [8, 12]: > 64 µg/mL
MBC [8, 13]: > 64 µg/mL
MBC [8, 14]: > 64 µg/mL
MBC [8, 15]: > 64 µg/mL
MBC ([9]; 7H9 Broth): > 64 µg/mL
MBC ([9]; MH Broth): > 64 µg/mL
MBC ([10]; 7H9 Broth): 64 µg/mL (≈ 85.6 µM)
MBC ([10]; MH Broth): > 64 µg/mL
